From patent publication US5441883A, “A3 adenosine receptor, DNA, and uses” (priority 1993, dated 1995)
Read-outs that look alike come from different tables or passages of the source.

Key:
A3 adenosine receptor [1] = biological target: T1, A3 adenosine receptor (Rattus norvegicus, UniProt P28647); test: Direct radioligand binding / Scatchard analysis, stably transfected CHO cell membranes; conditions: for specific, high affinity binding to the A3 receptor: radiolabeled ligands
T1 sequence (P28647 1-320): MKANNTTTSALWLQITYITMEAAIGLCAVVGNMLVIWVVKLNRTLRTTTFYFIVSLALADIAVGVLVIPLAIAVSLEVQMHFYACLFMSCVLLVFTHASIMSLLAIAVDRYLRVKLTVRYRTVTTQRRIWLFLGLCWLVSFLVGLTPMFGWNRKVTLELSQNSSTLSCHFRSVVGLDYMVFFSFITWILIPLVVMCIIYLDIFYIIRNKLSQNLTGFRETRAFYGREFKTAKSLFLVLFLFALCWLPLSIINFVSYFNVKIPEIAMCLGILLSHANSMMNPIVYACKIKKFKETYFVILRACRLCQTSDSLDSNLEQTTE
Description: FIG. 3 illustrates a Scatchard plot of radioligand binding assays for the A3 adenosine receptor performed with the adenosine radioligand [^125 I]APEA and membrane preparations from stably transfected CHO cells.
The entire coding region of the A3 cDNA insert from R226 was excised from pGem226 and subcloned into either the HindIII/XbaI sites of an RC-RSV expression vector (Invitrogene, San Diego, Calif.) or the HindIII/SmaI sites of pBC12BI (Cullen, 1987, Meth. Enzym. 152: 684-704). The resulting plasmids were called Rc-RSV226 and pBC226 respectively. For transient expression in COS-7 cells, pBC226 plasmid DNA was prepared in large-scale through one cycle of CsCl gradient ultracentrifugation and 45 μg pBC226 DNA were transfected into each 150mm dish of COS-7 cells according to the method of Chen and Okayama (1987, Molec. Cell Biol. 7: 2745-2752). For stable expression in CHO cells, 1 μg Rc-RSV226 plasmid DNA isolated from a small-scale preparation was purified using the Prep-A-Gene kit (Bio-Rad) and transfected into CHO cells by the CaPO4 method (Graham and van der Eb, 1973, Virol. 52: 456-463). After transfection, cells were cultured in DMEM (COS-7 cells) or F-12 (CHO cells) media supplemented with 10% fetal calf serum in a 3% CO2 atmosphere at 37° C. For stable transfection, selection was performed with neomycin (G418; SOURCE) at a concentration of 700 μg/ml; selection was started 72 hr after transfection and continued for 3 weeks. Cell colonies were screened for expression of the A3 adenosine receptor from the R226 expression vectors described herein by Northern blot hybridization of total cellular RNA with random-primed PCR226 probe (Maniatis et al., ibid.).
(§1) Cell membranes were prepared as follows. COS-7 cells (transient expressors) were harvested 48 hrs after transfection, whereas CHO cells (stable expressors) were grown to confluence in 150 mm plates. Cells were washed twice with ice-cold HOB buffer [15 mM Tris-HCl (pH 7.4), 5 mM MgCl2, 1 mM EDTA] and scraped off plates with a rubber policeman. Cells were then collected by centrifugation at 1,200 rpm (xx g), resuspended in HOB buffer, transferred to a Dounce homogenizer on ice, and homogenized for 20 sec with a CorTarge homogenizer (Eberbach Inc., Ann Arbor, Mich.) at the #3 speed setting. The homogenate was then centrifuged at 2,000 rpm (xx g) for 10 min at 4° C. The supernatant was saved and the pellet resuspended in HOB buffer and subjected to a second round of homogenation. The second homogenate was centrifuged at 2000 rpm (xx g) for 10 min and the pellet was discarded. Supernatants were pooled and centrifuged at 34,000 rpm (xx g) for 45 min. These crude membrane pellets were resuspended in TEM buffer [50 mM Tris-HCl (pH 7.4), 5 mM MgCl2, 1 mM EDTA]. Adenosine deaminase (Sigma, St Louis, Mo.) was added to the membrane suspensions to a concentration of 2 Units/ml and incubated at 37° C. for 30 min. The membrane suspension was subsequently recentrifuged at 34,000 rpm (xx g) for 45 min. The resulting pellet was resuspended in TEM buffer at a protein concentration of about 1 mg/ml and stored in small aliquots at -70° C. The protein concentration was measured according to the method of Lowry et al. (1954, J. Biol. Chem. 207: 1-XXX) using bovine serum albumin as a standard.
Radioligand binding assays were carried out in duplicate in 500 μl of a solution containing (at final concentrations) 50 mM Tris-HCl (pH 7.4), 5 mM MgCl2, 1 mM EDTA, 0.025 % ascorbic acid, radioligands, and appropriate drugs. […] ([aH]XAC), [^3 H]-labeled 2-[4-(2-[(4-aminophenyl)methylcarbobylamino]ethylaminocarbonyl)ethyl)phenyl]ethylamino-5'-N-ethylcarboxamidoadenosine ([^3 H]PAPA-APEC), and [^3 H]-labeled [2-(4-(2-carboxyethyl)phenylethyamino)5'-N-ethylcarboxamidoadenosine ([^3 H]CGS21680). Receptor binding was initiated by the addition of membrane preparations in an amount equivalent to 20-100 μg protein, and carried out at 37° C. for 1 hr.

A3 adenosine receptor [2] = biological target: T1, A3 adenosine receptor; test: cell-based; format: cell-based
Protocol: The concentrations of adenosine agonists used are 100 nM and the concentration of forskolin is 1 μM. Values are obtained from triplicate plates and shown as mean ±S.E.
The cell were not or pretreated with 100 ng/ml pertussis toxin for 18 hours. The concentration of forskolin and adenosine agonists used are as in FIG. 5.
It is known that the A 1 adenosine receptor inhibits adenylate cyclase activity and the A2 adenosine receptor stimulates adenylate cyclase respectively (Stiles, ibid.; Williams, ibid.).
(§2) Cells were grown to about 80% confluence in 150 mm dishes, washed twice with Ca^++ and Mg^++ -free PBS buffer and detached from plates with PBS buffer containing 0.02% EDTA. Cells were collected by centrifugation at 800 rpm (xx g) for 10 min at 4° C. and resuspended in an appropriate volume of KRH buffer [140 mM NaCl, 5 mM KCl , 2 mM CaCl2, 1.2 mM MgSO4, 1.2 mM KH2 PO4, 6 mM glucose, 25 mM Hepes-NaOH (pH 7.4)]. The cells were washed once with KRH buffer and resuspended in KRH buffer at a concentration of 10^7 cells/ml. Each of 100 μl aliquots of this cell suspension were added to a glass tube containing 100 μl KRH+200 μM Ro 20-1724 and incubated at 37° C. for 10 min. Prewarmed 200 μl KRH containing 200 μm Ro 20-1724 and test drugs were then added to the cells and mixed. After incubation at 37° C. for 20 min, 400 μl 10.5 mM NaAc (pH 6.2) were added and the glass tubes transferred to a boiling water bath. The incubated cell suspension were boiled for 20 min, and the tubes were then cooled to room temperature and centrifuged at 3000 rpm (xx g) for 15 min.
For experiments using pertussis toxin pretreatment, aseptic pertussis toxin (Sigma Chemical Co., St. Louis, Mo.) was dissolved in sterile water and added to the medium to a final concentration of 100 ng/ml. Toxin treatment was maintained for approximately 18 hours. The dishes were rinsed once with media immediately prior to the addition of adenosine receptor ligands and processed as described above.

A3 adenosine receptor [3] = biological target: T1, A3 adenosine receptor; test: biochemical; format: binding; conditions: for ability to compete with [125I]APNEA for A3 receptor binding: 100 μM
Protocol: FIGS. 4A and 4B illustrates competitive binding assays using stably transfected CHO cell membrane preparations.
as §1
Radioligand binding assays were carried out in duplicate in 500 μl of a solution containing (at final concentrations) 50 mM Tris-HCl (pH 7.4), 5 mM MgCl2, 1 mM EDTA, 0.025 % ascorbic acid, radioligands, and appropriate drugs. […] ([aH]XAC), [^3 H]-labeled 2-[4-(2-[(4-aminophenyl)methylcarbobylamino]ethylaminocarbonyl)ethyl)phenyl]ethylamino-5'-N-ethylcarboxamidoadenosine ([^3 H]PAPA-APEC), and [^3 H]-labeled [2-(4-(2-carboxyethyl)phenylethyamino)5'-N-ethylcarboxamidoadenosine ([^3 H]CGS21680). Receptor binding was initiated by the addition of membrane preparations in an amount equivalent to 20-100 μg protein, and carried out at 37° C. for 1 hr. Nonspecific binding was determined in the presence of 10 μM R-N^6 -phenyl-2-propyladenosine (R-PIA). After incubation, samples were filtered through glass fiber filters (Schleicher and Schuell #32) and washed three times with 4 ml ice-cold 10 mM TrisoHCl (pH 7.4). Radioactivity retained on the filters were counted using a Beckman LS6800 scintillation counter (Beckman Instruments, Palo Alto, Calif.). […] A LIGAND computer program was used for data analysis and curve fitting (Munson & Rodband, 1980, Anal. Biochem. 107: 220-225).
The A3 receptor was then characterized using competition assays between [^125 I]APNEA A3 receptor binding versus a series of other adenosine receptor ligands. Labeled APNEA was present in these assays at 0.5 nM; unlabled competitors were present at varying concentrations as shown in FIG. 4A.

A3 adenosine receptor [4] = biological target: T1, A3 adenosine receptor; format: cell-based; conditions: 1 μM forskolin; 100 μM adenosine
cellular cAMP levels = test: Cellular cAMP levels after forskolin in wild type and stably transfected CHO cells; format: cell-based, Chinese hamster; conditions: Cricetulus griseus, 20 min, read-out: increase in cellular cAMP levels, 1 μM forskolin
Protocol: as §2

[5] = stably transfected CHO membranes

For `CCNC(=O)[C@H]1O[C@@H](n2cnc3c(N)nc(NCCc4ccc(CCC(=O)O)cc4)nc32)[C@H](O)[C@@H]1O` [CGS21680], the “specific, high affinity binding to the A3 receptor” value (from here on “specific, high affinity binding”) (A3 adenosine receptor [1]; [5]) was “The only adenosine receptor ligand to show specific, high affinity binding to the A3 receptor was the A1 selective agonist [^125 I]APNEA”, the EC50 (A3 adenosine receptor [2]) was 0.144 ± 0.034 µM and the “inhibition of forskolin-stimulated cAMP accumulation” value (A3 adenosine receptor [2]; 1 μM forskolin, 100 nM agonist) was 20-50%. The “maximum inhibition of cAMP production” value (A3 adenosine receptor [2]; of control values) was 40-50%.

For `CCCn1c(=O)c2[nH]c(C3CCCC3)nc2n(CCC)c1=O` [DPCPX, 1,3-dipropyl-8-cyclopentylxanthine], the “specific, high affinity binding” value (A3 adenosine receptor [1]; [5]) was “The only adenosine receptor ligand to show specific, high affinity binding to the A3 receptor was the A1 selective agonist [^125 I]APNEA”, the “specific, high affinity binding” value (A3 adenosine receptor [1]; stably transfected CHO membranes, listed as [^3 H]DPCPX) was “does not bind to the A3 adenosine receptor” and the “ability to compete with [125I]APNEA for A3 receptor binding” value (A3 adenosine receptor [3]) was “none of the methylxanthines tested were capable of competing with labeled APNEA”. For the same compound, the “reversal of inhibitory effect of NECA on forskolin-stimulated cAMP production” value (A3 adenosine receptor [2]; 10 nM DPCPX) was “could not be reversed”.

`Nc1ncnc2c1ncn2[C@@H]1O[C@H](CO)[C@@H](O)[C@H]1O` [Adenosine, adenosine] was tested, and the “affinity relative to nucleotides” value (A3 adenosine receptor [3]) was “much higher affinity than ATP, ADP, AMP, cAMP or UTP”, the IC50 (A3 adenosine receptor [3]; Table I and text, 0.5 nM [125I]APNEA) was 30 ± 4 µM and the “pharmacological profile of inhibition of [125I]APNEA binding” value (A3 adenosine receptor [3]; rank order) was “R-PIA=NECA>S-PIA>adenosine>ATP=ADP”. The EC50 (A3 adenosine receptor [2]; Table II) was 6.5 ± 2.1 µM, the “maximal effect on cAMP production” value (A3 adenosine receptor [2]; at the concentrations tested) was “does not reach its maximal effect at the concentrations tested” and the “inhibition of forskolin-stimulated cAMP accumulation” value (A3 adenosine receptor [4]) was 20-50%.

For `Nc1ccc(CCNc2ncnc3c2ncn3[C@@H]2O[C@H](CO)[C@@H](O)[C@H]2O)cc1I` [APNEA, N^6-2-(4-amino-3-iodo-phenyl) ethyladenosine], the “saturable binding (Scatchard plot)” value (A3 adenosine receptor [1]; [125I]APNEA, stably transfected CHO membranes) was 225 fmol/mg, the Kd (A3 adenosine receptor [1]; [125I]APNEA, stably transfected CHO membranes, read-out: Kd (Scatchard plot analysis)) was 0.0155 ± 0.0024 µM and the “affinity at A3 compared with other, well-characterized A1 receptors” value (A3 adenosine receptor [1]; comparison with literature A1 receptors (Stiles et al., 1985)) was “about ten-fold lower”. The “specific, high affinity binding” value (A3 adenosine receptor [1]; [5]) was “saturable and high affinity binding” and the “specific, high affinity binding” value (A3 adenosine receptor [1]; stably transfected CHO membranes, listed as [^125 I]APNEA) was “only adenosine receptor ligand to show specific, high affinity binding to the A3 receptor”.

In the case of `CCCn1c(=O)c2[nH]c(-c3ccc(OCC(=O)NCCN)cc3)nc2n(CCC)c1=O` [XAC], the “specific, high affinity binding” value (A3 adenosine receptor [1]; [5]) is reported as “The only adenosine receptor ligand to show specific, high affinity binding to the A3 receptor was the A1 selective agonist [^125 I]APNEA” and the “ability to compete with [125I]APNEA for A3 receptor binding” value (A3 adenosine receptor [3]) is reported as “none of the methylxanthines tested were capable of competing with labeled APNEA”.

With `C=C[C@@]1(C)CC(=O)[C@]2(O)[C@@]3(C)[C@@H](O)CCC(C)(C)[C@@H]3[C@H](O)[C@H](OC(C)=O)[C@@]2(C)O1` [forskolin] the fold induction at 1 µM (cellular cAMP levels) was 15.
